The record followed here is patent publication US8563540B2, “Pyrido[3,2-d]pyrimidine PI3K delta inhibitor compounds and methods of use” (Genetech, Inc., priority 2010, dated 2013).

One assay addresses T1, p110 alpha (Homo sapiens, UniProt P42336).
T1 construct: purchased Upstate Group, Millipore; Dundee, UK
Nature of the assay: PI3K Isoform Inhibition Assay, p110 alpha (delta/alpha selectivity). The following applies: ratio of biochemical IC50 values. The protocol: (§1) PI3K enzymatic activity was assayed by measuring the amount of product phosphatidylinositol […] (PIP3) formed from substrate 4,5 phosphatidylinositol 4,5-phosphate (PIP2) using a fluorescence polarization displacement assay. The decrease in fluorescence polarization of a fluorescent PIP3 probe is measured as it is displaced from a PIP3-binding protein GRP-1 detector by PI3K-catalyzed product. […] The kinase reactions were initiated by the addition of 40 ng/mL p110α/p85α, 300 ng/mL p110β/p85α, 40 ng/mL p110γ, or 40 ng/mL […] (Upstate Group, Millipore; Dundee, UK), and 10 μM PIP2 (Echelon Biosciences) to the wells. […] After 60 minutes of incubation at room temperature to allow equilibration of labeled and unlabeled PIP3 binding, the parallel and perpendicular components of the fluorescence emissions from each sample were measured at an excitation wavelength of 530 nm and an emission wavelength of 590 nm using an Envision fluorescent plate reader with a rhodamine filter (PerkinElmer Life and Analytical Sciences; Wellesley, Mass.). The assay is capable of detecting 0.1-2.0 μM PIP3 product. The IC50 values were obtained by fitting the dose-dependent inhibition data to a 4-parameter equation using Assay Explorer software (MDL, San Ramon, Calif.).
(§2) The Formula I compound was serially diluted in 100% DMSO. The kinase reaction was incubated for 1 h at room temperature, and the reaction was terminated by the addition of PBS. IC50 values were subsequently determined using sigmoidal dose-response curve fit (variable slope).
The same protocol may be used to establish IC50 values for p110α (alpha) PI3K binding. […]

Another assay concerns the target T2, p110 delta (Homo sapiens, UniProt O00329).
T2 construct: purchased Upstate Group, Millipore; Dundee, UK
Nature of the assay: PI3K Isoform Inhibition Assay, p110 delta. The assay is classed as biochemical. Conditions: PI3K isoform inhibition assay of Example 901. The protocol:
as §1, §2
The four Class I PI 3-kinases are cloned into baculovirus vectors as follows: […]

T2 sequence (O00329 whole entry): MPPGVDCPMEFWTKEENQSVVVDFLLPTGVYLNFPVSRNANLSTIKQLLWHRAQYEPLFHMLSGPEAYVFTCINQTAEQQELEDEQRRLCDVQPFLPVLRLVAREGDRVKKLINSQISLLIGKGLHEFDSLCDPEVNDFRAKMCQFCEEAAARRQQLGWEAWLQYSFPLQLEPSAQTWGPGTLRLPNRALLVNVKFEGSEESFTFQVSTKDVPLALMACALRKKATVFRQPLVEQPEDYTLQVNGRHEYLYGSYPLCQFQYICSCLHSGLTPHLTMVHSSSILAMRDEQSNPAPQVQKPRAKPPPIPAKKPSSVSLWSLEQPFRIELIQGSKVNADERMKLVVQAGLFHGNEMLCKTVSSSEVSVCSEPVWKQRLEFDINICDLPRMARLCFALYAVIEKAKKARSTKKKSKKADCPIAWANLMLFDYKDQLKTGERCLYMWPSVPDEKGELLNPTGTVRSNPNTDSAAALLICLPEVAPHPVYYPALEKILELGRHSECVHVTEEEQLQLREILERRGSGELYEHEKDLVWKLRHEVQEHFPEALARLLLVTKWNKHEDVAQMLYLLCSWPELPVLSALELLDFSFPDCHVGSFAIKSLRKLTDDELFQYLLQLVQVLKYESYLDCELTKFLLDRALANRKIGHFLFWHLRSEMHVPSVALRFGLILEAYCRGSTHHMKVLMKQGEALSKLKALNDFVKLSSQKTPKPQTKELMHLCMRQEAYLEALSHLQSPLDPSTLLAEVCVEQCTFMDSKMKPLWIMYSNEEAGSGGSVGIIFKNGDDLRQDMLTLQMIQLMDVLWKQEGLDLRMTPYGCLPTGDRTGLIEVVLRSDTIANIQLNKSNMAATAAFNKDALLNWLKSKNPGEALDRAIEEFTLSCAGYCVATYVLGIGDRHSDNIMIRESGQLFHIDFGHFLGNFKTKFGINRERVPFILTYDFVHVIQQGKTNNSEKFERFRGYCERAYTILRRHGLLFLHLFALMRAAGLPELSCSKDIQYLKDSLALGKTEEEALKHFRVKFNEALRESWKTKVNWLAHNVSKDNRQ
T2 sequence (P27986 whole entry partner): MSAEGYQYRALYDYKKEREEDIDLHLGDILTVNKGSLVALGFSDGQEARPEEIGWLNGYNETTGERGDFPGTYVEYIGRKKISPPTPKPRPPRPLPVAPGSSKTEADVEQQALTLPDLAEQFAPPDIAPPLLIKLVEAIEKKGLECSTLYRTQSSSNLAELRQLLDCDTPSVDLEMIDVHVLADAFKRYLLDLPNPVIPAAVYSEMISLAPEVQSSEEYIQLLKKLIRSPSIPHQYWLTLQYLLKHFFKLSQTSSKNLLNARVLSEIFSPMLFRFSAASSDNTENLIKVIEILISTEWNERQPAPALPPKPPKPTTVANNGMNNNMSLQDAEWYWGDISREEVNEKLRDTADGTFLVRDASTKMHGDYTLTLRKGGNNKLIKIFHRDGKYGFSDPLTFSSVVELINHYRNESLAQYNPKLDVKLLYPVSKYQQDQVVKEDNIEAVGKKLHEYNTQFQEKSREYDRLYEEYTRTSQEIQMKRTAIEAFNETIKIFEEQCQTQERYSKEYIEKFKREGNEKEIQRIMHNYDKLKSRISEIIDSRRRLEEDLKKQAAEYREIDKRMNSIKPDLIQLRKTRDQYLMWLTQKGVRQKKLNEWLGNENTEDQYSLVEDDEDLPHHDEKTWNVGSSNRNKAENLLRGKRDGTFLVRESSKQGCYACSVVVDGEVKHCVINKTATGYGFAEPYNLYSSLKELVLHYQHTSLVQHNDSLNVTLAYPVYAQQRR
T1 sequence (P42336 whole entry): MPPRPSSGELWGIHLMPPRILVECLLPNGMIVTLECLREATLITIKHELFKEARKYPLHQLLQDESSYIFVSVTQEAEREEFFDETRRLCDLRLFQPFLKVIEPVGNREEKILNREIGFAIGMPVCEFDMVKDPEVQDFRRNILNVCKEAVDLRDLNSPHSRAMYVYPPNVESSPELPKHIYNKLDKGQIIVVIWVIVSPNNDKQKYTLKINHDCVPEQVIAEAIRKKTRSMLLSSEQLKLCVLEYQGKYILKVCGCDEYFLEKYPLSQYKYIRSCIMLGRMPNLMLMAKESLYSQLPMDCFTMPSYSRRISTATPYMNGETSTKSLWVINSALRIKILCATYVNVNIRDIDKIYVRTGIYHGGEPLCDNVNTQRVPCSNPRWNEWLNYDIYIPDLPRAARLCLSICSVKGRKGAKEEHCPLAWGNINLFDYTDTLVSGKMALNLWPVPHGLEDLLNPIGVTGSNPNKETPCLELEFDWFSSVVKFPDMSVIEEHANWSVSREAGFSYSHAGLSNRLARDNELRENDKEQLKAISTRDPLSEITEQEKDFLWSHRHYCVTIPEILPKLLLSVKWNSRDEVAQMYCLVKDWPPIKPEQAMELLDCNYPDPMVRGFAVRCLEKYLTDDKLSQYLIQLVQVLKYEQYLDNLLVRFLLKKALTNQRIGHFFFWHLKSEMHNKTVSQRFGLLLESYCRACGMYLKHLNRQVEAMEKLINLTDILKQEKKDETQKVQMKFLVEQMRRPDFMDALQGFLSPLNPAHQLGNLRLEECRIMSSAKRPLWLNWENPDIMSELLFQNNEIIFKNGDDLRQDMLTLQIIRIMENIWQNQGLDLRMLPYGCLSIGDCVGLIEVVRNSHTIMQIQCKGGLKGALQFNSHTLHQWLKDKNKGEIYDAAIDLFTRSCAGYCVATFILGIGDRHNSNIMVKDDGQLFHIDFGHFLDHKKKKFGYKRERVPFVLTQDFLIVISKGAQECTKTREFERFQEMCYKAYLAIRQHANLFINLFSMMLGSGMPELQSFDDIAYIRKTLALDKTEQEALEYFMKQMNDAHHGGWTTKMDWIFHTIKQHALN
T1 sequence (P27986 whole entry partner): as the sequence (P27986 whole entry partner) above

Regarding `Nc1ncc(-c2nc(N3CCOCC3)c3ncc(C4CC4)cc3n2)cn1` [Compound 198, 5-(7-cyclopropyl-4-morpholinopyrido[3,2-d]pyrimidin-2-yl)pyrimidin-2-amine], the “IC50 p110 alpha/IC50 p110 delta” value on p110 alpha turned out to be 0.27. On p110 delta, it took 3.88 nM to reach half-maximal inhibition (IC50).

Take `CC(C)(O)C1CCN(Cc2ccc3nc(-c4ccc(N)nc4)nc(N4CCOCC4)c3n2)CC1` [Compound 122, 2-(1-((2-(6-aminopyridin-3-yl)-4-morpholinopyrido[3,2-d]pyrimidin-6-yl)methyl)piperidin-4-yl)propan-2-ol]: the “IC50 p110 alpha/IC50 p110 delta” value at p110 alpha turned out to be 15. Inhibition against p110 delta was half-maximal at 5.42 nM (IC50).

Turning to `Fc1ccc2[nH]ccc2c1-c1nc(N2CCOCC2)c2nc(CN3CC(N4CCC(F)(F)CC4)C3)ccc2n1` [Compound 125, 4-(6-((3-(4,4-difluoropiperidin-1-yl)azetidin-1-yl)methyl)-2-(5-fluoro-1H-indol-4-yl)pyrido[3,2-d]pyrimidin-4-yl)morpholine], the “IC50 p110 alpha/IC50 p110 delta” value on p110 alpha stood at 246. The midpoint of inhibition against p110 delta, the IC50, lay at 1.52 nM.

Turning to `Cc1cc2ccccc2n1-c1nc(N2CCOCC2)c2nc(CN3CCC(C(C)(C)O)CC3)ccc2n1` [Compound 135, 2-(1-((2-(2-methyl-1H-indol-1-yl)-4-morpholinopyrido[3,2-d]pyrimidin-6-yl)methyl)piperidin-4-yl)propan-2-ol], on p110 alpha, the “IC50 p110 alpha/IC50 p110 delta” value came out at 82. In addition, on p110 delta, 25.6 nM corresponded to half-maximal inhibition (IC50).

Take `CC1(COc2ccc3nc(-c4cnc(N)nc4)nc(N4CCOCC4)c3n2)COC1` [Compound 188, 5-(6-((3-methyloxetan-3-yl)methoxy)-4-morpholinopyrido[3,2-d]pyrimidin-2-yl)pyrimidin-2-amine]: the “IC50 p110 alpha/IC50 p110 delta” value on p110 alpha came to 0.18. For the same compound, at p110 delta, the IC50 (usually the midpoint of a concentration-inhibition curve) was 8.69 nM.

For the compound `Fc1ccc2[nH]ccc2c1-c1ccc2nc(N3CCOCC3)nc(N3CCOCC3)c2n1` [Compound 159, 4,4′-(6-(5-fluoro-1H-indol-4-yl)pyrido[3,2-d]pyrimidine-2,4-diyl)dimorpholine], the “IC50 p110 alpha/IC50 p110 delta” value on p110 alpha is reported as 1.4. On p110 delta, this compound came in with a 50% inhibitory concentration (IC50) of 873 nM.

Consider `CC(C)(O)C1CCN(Cc2ccc3nc(-n4ccc5ccccc54)nc(N4CCOCC4)c3n2)CC1` [Compound 128, 2-(1-((2-(1H-indol-1-yl)-4-morpholinopyrido[3,2-d]pyrimidin-6-yl)methyl)piperidin-4-yl)propan-2-ol], for which the “IC50 p110 alpha/IC50 p110 delta” value on p110 alpha came to 26. At p110 delta, this compound yielded a half-maximal inhibitory concentration (IC50) of 81.9 nM.

With `CC(C)Oc1cnc2c(N3CCOCC3)nc(-c3cnc(N)nc3)nc2c1` [Compound 201, 5-(7-isopropoxy-4-morpholinopyrido[3,2-d]pyrimidin-2-yl)pyrimidin-2-amine], the “IC50 p110 alpha/IC50 p110 delta” value on p110 alpha stood at 0.34. In addition, on p110 delta, the IC50 was determined as 4.91 nM.

Consider `CC(C)(O)C1CCN(Cc2ccc3nc(-c4c[nH]c5ccccc45)nc(N4CCOCC4)c3n2)CC1` [Compound 133, 2-(1-((2-(1H-indol-3-yl)-4-morpholinopyrido[3,2-d]pyrimidin-6-yl)methyl)piperidin-4-yl)propan-2-ol], for which, at p110 alpha, the “IC50 p110 alpha/IC50 p110 delta” value was 22. Inhibition against p110 delta was half-maximal at 23.8 nM (IC50).

Take `Cc1oc2ccccc2c1-c1nc(N2CCOCC2)c2nc(CN3CCC(C(C)(C)O)CC3)ccc2n1` [Compound 103, 2-(1-((2-(2-methylbenzofuran-3-yl)-4-morpholinopyrido[3,2-d]pyrimidin-6-yl)methyl)piperidin-4-yl)propan-2-ol]: the “IC50 p110 alpha/IC50 p110 delta” value on p110 alpha is reported as 200. At p110 delta, this compound registered an IC50 of 10.5 nM.

Regarding `Cc1cc(Nc2nc(N3CCOCC3)c3nc(CN4CCC(C(C)(C)O)CC4)ccc3n2)n[nH]1` [Compound 106, 2-(1-((2-(5-methyl-1H-pyrazol-3-ylamino)-4-morpholinopyrido[3,2-d]pyrimidin-6-yl)methyl)piperidin-4-yl)propan-2-ol], the “IC50 p110 alpha/IC50 p110 delta” value at p110 alpha came out at 31. The same compound returned an IC50 at p110 delta of 66.9 nM.

For `CC(F)(F)c1nc2ccccc2n1-c1nc(N2CCOCC2)c2nc(CN3CCC(C(C)(C)O)CC3)ccc2n1` [Compound 120, 2-(1-((2-(2-(1,1-difluoroethyl)-1H-benzo[d]imidazol-1-yl)-4-morpholinopyrido[3,2-d]pyrimidin-6-yl)methyl)piperidin-4-yl)propan-2-ol], at p110 alpha, the “IC50 p110 alpha/IC50 p110 delta” value was 45. The compound also came in with an IC50 on p110 delta of 2.31 nM.

Regarding `CC(C)(C(N)=O)N1CCN(Cc2ccc3nc(-c4c[nH]c5ccccc45)nc(N4CCOCC4)c3n2)CC1` [Compound 123, 2-(4-((2-(1H-indol-3-yl)-4-morpholinopyrido[3,2-d]pyrimidin-6-yl)methyl)piperazin-1-yl)-2-methylpropanamide], at p110 alpha, the “IC50 p110 alpha/IC50 p110 delta” value amounted to 55. Further, 4.48 nM corresponded to half-maximal inhibition at p110 delta (IC50).

Turning to `Cc1nc2ccccc2n1-c1nc(N2CCOCC2)c2nc(CN3CCC(C(C)(C)O)CC3)ccc2n1` [Compound 101, 2-(1-((2-(2-methyl-1H-benzo[d]imidazol-1-yl)-4-morpholinopyrido[3,2-d]pyrimidin-6-yl)methyl)piperidin-4-yl)propan-2-ol], the “IC50 p110 alpha/IC50 p110 delta” value on p110 alpha was determined as 33. At p110 delta, this compound yielded an IC50 of 12.5 nM.

On to `CC(C)(O)C1CCN(C(=O)c2ccc3nc(-c4c(F)ccc5[nH]ccc45)nc(N4CCOCC4)c3n2)CC1` [Compound 118, (2-(5-fluoro-1H-indol-4-yl)-4-morpholinopyrido[3,2-d]pyrimidin-6-yl)(4-(2-hydroxypropan-2-yl)piperidin-1-yl)methanone], for which the “IC50 p110 alpha/IC50 p110 delta” value on p110 alpha is 77. Also, the IC50 at p110 delta came to 13 nM.

With `Cc1cnc2c(N3CCOCC3)nc(-c3cnc(N)nc3)nc2c1` [Compound 197, 5-(7-methyl-4-morpholinopyrido[3,2-d]pyrimidin-2-yl)pyrimidin-2-amine], at p110 alpha, the “IC50 p110 alpha/IC50 p110 delta” value came out at 0.20. The same compound came in with an IC50 against p110 delta of 5.72 nM.

On to `CC(C)n1ncnc1-c1ccc2nc(-c3c(F)ccc4[nH]ccc34)nc(N3CCOCC3)c2n1` [Compound 141, 4-(2-(5-fluoro-1H-indol-4-yl)-6-(1-isopropyl-1H-1,2,4-triazol-5-yl)pyrido[3,2-d]pyrimidin-4-yl)morpholine], for which the “IC50 p110 alpha/IC50 p110 delta” value at p110 alpha stood at 9.4. The IC50 at p110 delta came out at 63.6 nM.

Consider `CC(C)(O)C1CCN(Cc2ccc3nc(-c4cnc(N)nc4)nc(N4CCOCC4)c3n2)CC1` [Compound 107, 2-(1-((2-(2-aminopyrimidin-5-yl)-4-morpholinopyrido[3,2-d]pyrimidin-6-yl)methyl)piperidin-4-yl)propan-2-ol], for which the “IC50 p110 alpha/IC50 p110 delta” value at p110 alpha was determined as 5.4. Also, half-maximal inhibition at p110 delta (IC50) was put at 2.57 nM.

Consider `CC(C)(C(N)=O)N1CCN(Cc2ccc3nc(-c4c(F)ccc5[nH]ccc45)nc(N4CCOCC4)c3n2)CC1` [Compound 121, 2-(4-((2-(5-fluoro-1H-indol-4-yl)-4-morpholinopyrido[3,2-d]pyrimidin-6-yl)methyl)piperazin-1-yl)-2-methylpropanamide], for which, on p110 alpha, the “IC50 p110 alpha/IC50 p110 delta” value turned out to be 203. On p110 delta, this compound came in with an IC50 of 1.29 nM.

For the compound `CC(C)(O)CNCc1ccc2nc(-c3c(F)ccc4[nH]ccc34)nc(N3CCOCC3)c2n1` [Compound 143, 1-((2-(5-fluoro-1H-indol-4-yl)-4-morpholinopyrido[3,2-d]pyrimidin-6-yl)methylamino)-2-methylpropan-2-ol], the “IC50 p110 alpha/IC50 p110 delta” value at p110 alpha is 58. Also, the IC50 on p110 delta stood at 35.9 nM.

Regarding `Fc1ccc2[nH]ccc2c1-c1nc(N2CCOCC2)c2nc(CN3CC(C4CCOCC4)C3)ccc2n1` [Compound 111, 4-(2-(5-fluoro-1H-indol-4-yl)-6-((3-(tetrahydro-2H-pyran-4-yl)azetidin-1-yl)methyl)pyrido[3,2-d]pyrimidin-4-yl)morpholine], at p110 alpha, the “IC50 p110 alpha/IC50 p110 delta” value was 281. On p110 delta, this compound yielded an IC50 of 5.32 nM.

`CC(C)c1nc2ccccc2n1-c1nc(N2CCOCC2)c2nc(C(=O)N3CCC(C(C)(C)O)CC3)ccc2n1` [Compound 119, (4-(2-hydroxypropan-2-yl)piperidin-1-yl)(2-(2-isopropyl-1H-benzo[d]imidazol-1-yl)-4-morpholinopyrido[3,2-d]pyrimidin-6-yl)methanone]: the “IC50 p110 alpha/IC50 p110 delta” value on p110 alpha was 15. Besides, 87.8 nM corresponded to half-maximal inhibition against p110 delta (IC50).

On to `Cc1cc(-c2nc(N3CCOCC3)c3nc(CN4CCC(C(C)(C)O)CC4)ccc3n2)cnc1N` [Compound 132, 2-(1-((2-(6-amino-5-methylpyridin-3-yl)-4-morpholinopyrido[3,2-d]pyrimidin-6-yl)methyl)piperidin-4-yl)propan-2-ol], for which the “IC50 p110 alpha/IC50 p110 delta” value at p110 alpha stood at 10. The same compound had an IC50 against p110 delta of 22.4 nM.

As to `Cc1nc(N)ccc1-c1nc(N2CCOCC2)c2nc(CN3CCC(C(C)(C)O)CC3)ccc2n1` [Compound 116, 2-(1-((2-(6-amino-2-methylpyridin-3-yl)-4-morpholinopyrido[3,2-d]pyrimidin-6-yl)methyl)piperidin-4-yl)propan-2-ol], the “IC50 p110 alpha/IC50 p110 delta” value at p110 alpha was 43. Besides, on p110 delta, half-maximal inhibition (IC50) required 9.33 nM.
